Assay results as given in publication PMC7387483, “In silico identification and functional validation of linear cationic α-helical antimicrobial peptides in the ascidian Ciona intestinalis” (Scientific Reports, 2020).
Where no end group is shown, it is not given here.

Legend:
[1] = system: Escherichia coli (NBRC14237); type: cell-based; conditions: for Antimicrobial activity against Escherichia coli (in words): segments with Na^4vSS less than − 30, Supplementary Fig. S1; for MIC, E. coli (NBRC 14237): NBRC14237
Experimental: (§1) Antimicrobial activities of the peptides were measured as described previously. Synthetic peptides were added to the microbial suspension in the individual wells of a microplate at final concentrations of 3.125, 6.25, 12.5, and 25 μM. The relative activities (RA) were calculated by the equation RA = ((APC − ANC) − ASA)/(APC − ANC), where APC, ANC, and ASA represent the absorbance of positive control, negative control, and samples, respectively. The bacteria and yeast strains used were Escherichia coli (NBRC14237), Staphylococcus aureus (NBRC12732), Pseudomonas aeruginosa (NBRC12582), and Saccharomyces cerevisiae (NBRC10217), which were purchased from Biological Resource Center, National Institute of Technology and Evaluation (NBRC, Tokyo, Japan). The interaction between Ciona LCAMPs and membrane interface was predicted using AmphipaSeek server (https://npsa-pbil.ibcp.fr/cgi-bin/npsa_automat.pl?page=/NPSA/npsa_amphipaseek.html)[28].

[2] = cited from earlier work
Experimental: We examined the effects of five novel Ciona LCAMPs in the presence of NaCl on antimicrobial activity against E. coli. Reflective of the habitat of C. intestinalis, salt resistance was found in all peptides at the concentration of 12.5 μM (Fig. 2).

[3] = system: Pseudomonas aeruginosa (NBRC12582); type: cell-based
Experimental: as §1

[4] = system: Staphylococcus aureus (NBRC12732); type: cell-based
Experimental: as §1

[5] = system: Saccharomyces cerevisiae (NBRC10217); type: cell-based
Experimental: as §1

bacteria = conditions: in vitro development-resistance studies; cited from earlier work
Text: Antimicrobial peptides are crucial and widespread effector molecules of the innate immune system and are a part of the first line of host defense against invading pathogens[1],[2]. To date, thousands of antimicrobial peptides have been identified from bacteria to mammals and have been classified into several groups on basis of the structure and sequence features[3]–[5]. Of these, linear cationic α-helical antimicrobial peptides (LCAMPs), the genes of which encode short amphipathic peptides without cysteine residues, are the most abundant and widespread in organisms. LCAMPs are known for their ...

Row | Substance | Antimicrobial activity against Escherichia coli (in words) [1] | MIC, E. coli (NBRC 14237) [1] [µM] | MIC, S. aureus (NBRC 12732) [4] [µM] | MIC, S. cerevisiae (NBRC 10217) [5] [µM] | further results
1 | AERLMRKAAKDHWSNKMAKDVIWWEQ [KH.S930.2, cationic amphipathic α-helical segment with Na4vSS less than − 30, synthetic peptide] | no or weak antimicrobial activities | – | – | – | –
2 | ALRSAVRTVARVGRAVLPHVAI [Ci-PAP-A, known salt-resistant LCAMP from C. intestinalis hemocyte EST database] | – | – | – | – | NaCl concentration in the presence of which antimicrobial activity is exhibited [2]: 100 mM
3 | FGRRRRVPGRRRRWWNERAMNEI [KH.S1007.2, cationic amphipathic α-helical segment with Na4vSS less than − 30, synthetic peptide] | no or weak antimicrobial activities | – | – | – | –
4 | FRRRRRRRRHWHHHHHYHYHHHRRRRRRRRRW [KH.L63.9, cationic amphipathic α-helical segment with Na4vSS less than − 30, synthetic peptide] | no or weak antimicrobial activities | – | – | – | –
5 | KGGKFLNFLKKAAKVGAKVGMAALG [KH.S908.1] | – | < 3.125 | < 3.125 | 6.25 | MIC, P. aeruginosa (NBRC 12582) [3]: 6.25 µM
6 | KLKTWPKNYWRKVWSKKNWRKFVKKFKHW [KH.S921.1] | – | < 3.125 | < 3.125 | – | MIC, P. aeruginosa (NBRC 12582) [3]: < 3.125 µM
7 | RRRRRIAARIGSGVAQTGGELI [KH.C1.365, cationic amphipathic α-helical segment with Na4vSS less than − 30, synthetic peptide] | no or weak antimicrobial activities | – | – | – | –
8 | SRRRFDFSRRRIYVARRRSLAFAHRRR [KH.C7.94] | – | 6.25 | 6.25 | 6.25 | –
9 | TINKKFRWHGKRKWWLRFVKQ [KH.S1531.4] | – | < 3.125 | < 3.125 | 6.25 | –
10 | WRSLGRTLLRLSHALKPLARRSGW [Ci-MAM-A, known salt-resistant LCAMP from C. intestinalis hemocyte EST database] | – | – | – | – | NaCl concentration in the presence of which antimicrobial activity is exhibited [2]: 450 mM
11 | WWLSRRRSSLFYWR [KH.C1.640] | – | < 3.125 | < 3.125 | 12.5 | –
12 | pexiganan | – | – | – | – | Potential for induction of bacterial resistance (bacteria): low potential for induction of bacterial resistance
